Laboratory results reported in PubChem BioAssay (NCI).
Values joined by “and” are separate entries in the source; they are usually repeats but may differ in a detail not shown here. Equal entries are not always repeated.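 1) Cells in 96-well plates. 2) Compound, 48 h, 5 concentrations. 3) Linear interpolation between surrounding doses. 4) Unreached endpoint = highest concentration. Abbreviation: GI50, concentration required for 50% inhibition of growth. Definition used: TGI = concentration required for complete inhibition of growth.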

Key:
Assay in all cases: NCI tumour cell line growth inhibition, 48 h
786-0 renal = test system: 786-0 renal
DU-145 prostate = test system: DU-145 prostate
HCT-116 colon = test system: HCT-116 colon
HCT-15 colon = test system: HCT-15 colon
NCI-H226 lung = test system: NCI-H226 lung
NCI-H23 lung = test system: NCI-H23 lung
OVCAR-5 ovarian = test system: OVCAR-5 ovarian
PC-3 prostate = test system: PC-3 prostate
SK-MEL-5 melanoma = test system: SK-MEL-5 melanoma
SNB-75 CNS = test system: SNB-75 CNS

Structure (SMILES)	GI50 (786-0 renal)	TGI (786-0 renal)	GI50 (DU-145 prostate)	TGI (DU-145 prostate)	GI50 (HCT-116 colon)	TGI (HCT-116 colon)	GI50 (HCT-15 colon)	TGI (HCT-15 colon)	GI50 (NCI-H226 lung)	TGI (NCI-H226 lung)	GI50 (NCI-H23 lung)	TGI (NCI-H23 lung)	GI50 (OVCAR-5 ovarian)	TGI (OVCAR-5 ovarian)	GI50 (PC-3 prostate) [µM]	TGI (PC-3 prostate)	GI50 (SK-MEL-5 melanoma)	TGI (SK-MEL-5 melanoma)	GI50 (SNB-75 CNS)	TGI (SNB-75 CNS)
CNCCCn1cc(C2=C(c3cn(C)c4ccccc34)C(=O)NC2=O)c2ccccc21	4.77 µM	11.3 µM	5.35 µM	16.1 µM	3.17 µM	12.3 µM	6.04 µM	22.7 µM	6.2 µM	22.8 µM	5.21 µM	13.2 µM	7.65 µM	20.7 µM	4.01	14.6 µM	3.77 µM	7.3 µM	0.281 µM	2.95 µM
O=C(Nc1ccc(OS(=O)(=O)c2ccccc2)cc1)C12CC3CC(CC(C3)C1)C2	3.8 µM	> 100 µM	> 100 µM	> 100 µM	2.5 µM	> 100 µM	0.997 µM	> 100 µM	27.7 µM	> 100 µM	6.68 µM	> 100 µM	> 100 µM	> 100 µM	2.9	> 100 µM	3.12 µM	> 100 µM	7.16 µM	> 100 µM
O=c1n(CC2CO2)c(=O)n(CC2CO2)c(=O)n1CC1CO1 (stereo unspecified)	8.38 µM and 4.15 µM	24.2 µM and 84.8 µM and > 100 µM	11 µM and 3.22 µM	66.2 µM and 127 µM and 37.3 µM	12.3 µM and 10.2 µM	43.9 µM and 88.6 µM and > 100 µM	13.1 µM and 25.7 µM and 11.9 µM	78.3 µM and 90.6 µM and > 100 µM	22.6 µM and 10.9 µM	78.3 µM and 103 µM and 45.9 µM	14.2 µM and 7.3 µM	90.9 µM and > 100 µM	18.2 µM and 19.9 µM	56 µM and 118 µM and 40.1 µM	20.3	75.4 µM and 92.2 µM and > 100 µM	16.8 µM and 25.3 µM and 9.6 µM	37.3 µM and 79.6 µM and 75.6 µM	6.8 µM and 21.1 µM	89.8 µM and > 100 µM
COCCOc1cc(F)c2c(Nc3ccc(NC(=O)Cn4cc(C(C)C)nn4)cc3)ncnc2c1	39.1 µM	> 100 µM	> 100 µM	> 100 µM	57.9 µM	> 100 µM	> 100 µM	> 100 µM	60.8 µM	> 100 µM	> 100 µM	> 100 µM	> 100 µM	> 100 µM	> 100	> 100 µM	24.3 µM	> 100 µM	28.2 µM	> 100 µM
C[C@H]1c2cccc(O)c2C(O)=C2C(=O)[C@]3(O)C(O)=C(C(N)=O)C(=O)[C@@H](N(C)C)[C@@H]3[C@@H](O)[C@@H]21	3.26 µM	12.5 µM	3.61 µM	12.5 µM	2.89 µM	10.5 µM	3.46 µM	16 µM	3.72 µM	25.7 µM	2.99 µM	11.9 µM	5.22 µM	95.4 µM	3	12.8 µM	1.9 µM	4.12 µM	1.81 µM	6.66 µM
Cc1ccc(Cl)cc1Nc1nc(C(F)(F)F)ccc1C(=O)N1CCN(c2ccc(F)cc2)CC1	14.7 µM	29.4 µM	17.4 µM	36.6 µM	11.9 µM	26.3 µM	13.2 µM	29.3 µM	15.5 µM	31.3 µM	10.2 µM	24.2 µM	12.1 µM	30.1 µM	10.2	33.3 µM	12 µM	24.3 µM		14.2 µM
COc1ccc(C(=O)c2cc(OC)c(C)c(OC)c2)cc1OC(=O)CCl	3.65 µM	> 79.5 µM	0.322 µM	18.2 µM	0.392 µM	> 38.3 µM	0.0697 µM	27.2 µM	8 µM	> 30.6 µM	0.558 µM	> 100 µM	4.37 µM	> 100 µM	0.275	> 100 µM	0.463 µM	3.4 µM	0.154 µM	> 100 µM
COc1cc(C(=O)c2cc(C)c3[nH]c4ccc(Cl)cc4c3c2C)cc(OC)c1OC	0.0634 µM	6.19 µM	0.0459 µM	3.6 µM	0.0376 µM	3.19 µM	0.0355 µM	4.25 µM	0.679 µM	18.3 µM	0.0444 µM	7.43 µM	0.0635 µM	18 µM	0.146	13.7 µM	0.0361 µM	0.196 µM	0.0254 µM	3.96 µM
CC(C)c1ccc(Nc2ccc3c(OCCCN4CCN(C)CC4)cccc3n2)cc1	11.4 µM	27 µM	13.9 µM	26.9 µM	5.9 µM	20.6 µM	1.94 µM	4.28 µM	18.8 µM	38.7 µM	11.9 µM	26.1 µM	15.6 µM	31.2 µM	12.9	31.4 µM	15.3 µM	30.2 µM	12.8 µM	30 µM
Clc1coc2nc3ccccc3c(Nc3ccc4c(c3)OCO4)c12	2.73 µM	> 42.6 µM	2.58 µM	17.2 µM	0.443 µM	11.8 µM	0.429 µM	8.05 µM	2.35 µM	> 26.2 µM	0.983 µM	22 µM	6.99 µM	> 100 µM	1.93	13.5 µM	1.46 µM	5.78 µM	4.36 µM	> 100 µM
CC(C)=C[C@@H]1C[C@H](C)[C@H]2CC[C@H](C)C3=C2[C@](O)(OC3=O)[C@]1(C)O	> 100 µM	> 100 µM	> 100 µM	> 100 µM	> 100 µM	> 100 µM	> 100 µM	> 100 µM	> 100 µM	> 100 µM			> 100 µM	> 100 µM	> 100	> 100 µM	> 100 µM	> 100 µM	> 100 µM	> 100 µM
CCCCc1c(OC)cc(O)c2c1C(=O)c1[nH]c(C(=O)O)c(O)c(=O)c1C2=O		63.8 µM		> 100 µM		> 100 µM		> 100 µM		23.6 µM		20.3 µM		65.3 µM		> 100 µM				27.5 µM
